The values that follow come from patent US8785483B2, “Methods for treating COPD” (The Board of Regents of the University of Texas System, priority 2010, dated 2014).

In test [1] the test system is SPDEF. Kind of test: RT-PCR of SPDEF in IL-13-treated SAEC monolayer. In kind it is cell-based, human. The following applies: SAEC monolayer at ALI, IL-13 18 h. The protocol: (§1) FIGS. 6A-6B. AR inhibition prevents IL-13-induced expression of Mucin and transcription factor SPDEF in airway epithelial cell monolayer. (A) The airway epithelial cell monolayer at ALI was serum starved without or with fidarestat and incubated with IL-13 for 18 h. Total RNA was isolated and subsequently RT-PCR was performed to assess the expression of Muc5AC and SPDEF. The bar diagrams show densitometric analysis of the corresponding blots (n=4). *p<0.001 vs Control; **p<0.001 vs IL-13; (B) The monolayer of ciliated airway cells at ALI was treated with AR inhibitor for 24 h and subsequently incubated with IL-13 for 24 or 48 h. At the end of incubation, cell lysate was prepared and subjected to western blotting using antibodies against Muc5AC, Muc5B, and SPDEF. The membranes were stripped and re-probed with antibodies against GAPDH to show the equal loading of protein. A representative blot is shown (n=4). *p<0.0001 vs Control; **p<0.001 vs IL-13.
For air-liquid interface (ALI) culture, SAEC were seeded at 8.5×10^4 cells/12-mm-diameter PET transparent insert with […] pores (12-well millicell culture insert; Millipore) and pre-coated with rat tail collagen type-1 (Sigma-Aldrich). The cells were grown submerged in the differentiation medium as described earlier by Zhen et al. (Am J Respir Cell Mol Biol 36: 244-253, 2007). […]

The test system of test [2] is Muc5AC. As to the kind of experiment: Western blot of Muc5AC in IL-13-treated SAEC monolayer. In kind it is cell-based, human. The following applies: IL-13 48 h, immunoblotting. As to the method: as §1, with “IL-13. […] Protein levels were determined using Bradford reagent (Biorad, Hercules, Calif.). […] The blots were then washed, exposed to HRP-conjugated secondary antibodies (1:5,000 dilution) for 1 h, and the antigen-antibody complex was detected by enhanced chemiluminescence (Amersham Pharmacia Biotech, Piscataway, N.J., USA). […]” for “IL-13.”

Take `NC(=O)[C@@H]1C[C@]2(NC(=O)NC2=O)c2cc(F)ccc2O1` [fidarestat, (2S,4S)-2-aminoformyl-6-fluoro-spiro[chroman-4,4′-imidazolidine]-2′,5′-dione]: the “IL-13-induced SPDEF mRNA levels” value in test [1] is “decreased significantly”. In addition, the “prevention of IL-13-induced increase in Muc5AC protein” value in test [2] is about 75%.
